Reference: patent US10758534B2 (Vertex Pharmaceuticals Incorporated, priority 2014, dated 2020)

Molecular target: T1, F508del (Homo sapiens, UniProt P13569, DEL508-508)
T1 construct: expressed in transfected cells
Assay: Protocol 2: FRET membrane potential optical assay (VIPR), identification of correction compounds
Type: cell-based
Conditions: Table 3; compounds of Table 1 as modulators of CFTR activity; protocol not stated
In short: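 Corrector readout: membrane-potential FRET (CC2-DMPE donor, DiSBAC2(3) acceptor) on VIPR II after Cl⁻-free gluconate bath with 10 μM forskolin and 20 μM genistein. Before this, F508del-expressing NIH3T3 cells were exposed to test compound for 16 h at 37 °C without serum; 27 °C incubation served as temperature-correction control.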

T1 sequence (P13569 with tags, fused parts or gaps DEL508-508): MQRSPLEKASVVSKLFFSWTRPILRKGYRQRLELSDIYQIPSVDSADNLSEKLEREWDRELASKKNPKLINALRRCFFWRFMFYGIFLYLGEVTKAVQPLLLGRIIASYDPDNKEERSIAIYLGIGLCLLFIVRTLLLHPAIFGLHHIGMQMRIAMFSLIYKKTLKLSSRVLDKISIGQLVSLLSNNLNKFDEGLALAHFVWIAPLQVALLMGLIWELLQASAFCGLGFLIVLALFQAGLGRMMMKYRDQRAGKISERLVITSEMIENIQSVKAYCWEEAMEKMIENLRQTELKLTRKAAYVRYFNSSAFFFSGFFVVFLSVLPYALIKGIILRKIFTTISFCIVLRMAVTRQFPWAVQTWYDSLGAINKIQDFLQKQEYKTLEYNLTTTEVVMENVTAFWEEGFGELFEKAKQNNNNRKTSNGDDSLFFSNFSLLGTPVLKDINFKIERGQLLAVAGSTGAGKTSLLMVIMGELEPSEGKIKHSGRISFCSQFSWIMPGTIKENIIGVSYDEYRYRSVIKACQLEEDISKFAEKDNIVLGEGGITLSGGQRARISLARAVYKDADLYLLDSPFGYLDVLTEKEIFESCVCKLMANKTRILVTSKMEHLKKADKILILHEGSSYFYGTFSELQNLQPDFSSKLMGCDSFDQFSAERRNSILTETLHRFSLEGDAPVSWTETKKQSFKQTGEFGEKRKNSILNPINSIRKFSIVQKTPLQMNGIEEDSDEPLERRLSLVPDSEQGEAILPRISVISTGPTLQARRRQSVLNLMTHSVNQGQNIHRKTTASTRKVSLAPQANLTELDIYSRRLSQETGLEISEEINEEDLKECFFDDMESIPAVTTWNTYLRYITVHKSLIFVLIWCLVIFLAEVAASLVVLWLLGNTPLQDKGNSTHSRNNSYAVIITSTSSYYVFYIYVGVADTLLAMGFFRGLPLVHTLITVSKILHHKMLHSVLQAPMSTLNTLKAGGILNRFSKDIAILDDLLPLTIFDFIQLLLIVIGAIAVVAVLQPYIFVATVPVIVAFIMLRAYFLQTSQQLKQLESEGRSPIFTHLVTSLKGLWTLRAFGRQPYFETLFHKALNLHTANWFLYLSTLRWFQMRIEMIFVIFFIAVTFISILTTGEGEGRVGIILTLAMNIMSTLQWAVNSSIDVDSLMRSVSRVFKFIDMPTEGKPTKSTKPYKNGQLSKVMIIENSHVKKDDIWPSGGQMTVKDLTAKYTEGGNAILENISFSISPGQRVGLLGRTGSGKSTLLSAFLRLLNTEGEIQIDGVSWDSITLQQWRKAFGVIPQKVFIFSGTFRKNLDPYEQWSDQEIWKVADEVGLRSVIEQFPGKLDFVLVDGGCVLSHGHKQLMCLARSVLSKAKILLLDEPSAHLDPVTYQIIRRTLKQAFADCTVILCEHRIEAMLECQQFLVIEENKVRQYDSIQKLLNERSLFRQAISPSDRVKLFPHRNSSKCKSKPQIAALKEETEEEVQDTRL

Structure (SMILES)	EC30
Cc1cc(C)c(Oc2nc(-c3cc(OCC(C)C)ccc3F)ccc2C(=O)NS(=O)(=O)c2ccc[nH]c2=O)c(C)c1 [Compound 279, 6-(2-fluoro-5-isobutoxy-phenyl)-N-[(2-oxo-1H-pyridin-3-yl)sulfonyl]-2-(2,4,6-trimethylphenoxy)pyridine-3-carboxamide]	+++ (“+++” means <3 uM)
CCOc1cccc(-c2cc(C(=O)NS(=O)(=O)c3ccccc3)n(Cc3c(C)cccc3C)n2)c1 [Compound 280, N-(benzenesulfonyl)-2-[(2,6-dimethylphenyl)methyl]-5-(3-ethoxyphenyl)pyrazole-3-carboxamide]	+++ (“+++” means <3 uM)
Cc1cc(C)c(Oc2nc(-c3ccc(Cl)c(OC(C)C)c3)ccc2C(=O)NS(=O)(=O)c2cccc(N)n2)c(C)c1 [Compound 281, N-[(6-amino-2-pyridyl)sulfonyl]-6-(4-chloro-3-isopropoxy-phenyl)-2-(2,4,6-trimethylphenoxy)pyridine-3-carboxamide]	+++ (“+++” means <3 uM)
Cc1cccc(-c2nc(C(C)(C)C)ccc2C(=O)NS(=O)(=O)c2cccc(N)c2)c1 [Compound 282, N-(3-aminophenyl)sulfonyl-6-tert-butyl-2-(m-tolyl)pyridine-3-carboxamide]	++ (“++” means between 3 uM and 10 uM)
Cc1cc(C)c(Oc2nc(C(C)(C)C)ccc2C(=O)NS(=O)(=O)c2ccnc(N)c2)c(C)c1 [Compound 283, N-[(2-amino-4-pyridyl)sulfonyl]-6-tert-butyl-2-(2,4,6-trimethylphenoxy)pyridine-3-carboxamide]	+++ (“+++” means <3 uM)
Cc1cc(C)c(Oc2nc(-c3ccoc3)ccc2C(=O)NS(=O)(=O)c2cccc(N)n2)c(C)c1 [Compound 284, N-[(6-amino-2-pyridyl)sulfonyl]-6-(3-furyl)-2-(2,4,6-trimethylphenoxy)pyridine-3-carboxamide]	+++ (“+++” means <3 uM)
Cc1cc(C)c(Oc2nc3c(cc2C(=O)NS(=O)(=O)c2cccc(N)n2)CCCC3)c(C)c1 [Compound 285, N-[(6-amino-2-pyridyl)sulfonyl]-2-(2,4,6-trimethylphenoxy)-5,6,7,8-tetrahydroquinoline-3-carboxamide]	+++ (“+++” means <3 uM)
Cc1cccc(C)c1Oc1nc(C(C)(C)C)ccc1C(=O)NS(=O)(=O)c1cccc(N)c1 [Compound 286, N-(3-aminophenyl)sulfonyl-6-tert-butyl-2-(2,6-dimethylphenoxy)pyridine-3-carboxamide]	+++ (“+++” means <3 uM)
CC(C1CCCCC1)n1nc(C(C)(C)C)cc1C(=O)NS(=O)(=O)c1cccc(N)c1 (stereo not drawn) [Compound 287, N-(3-aminophenyl)sulfonyl-5-tert-butyl-2-(1-cyclohexylethyl)pyrazole-3-carboxamide]	+++ (“+++” means <3 uM)
Cc1ccc(-c2nc(C(C)(C)C)ccc2C(=O)NS(=O)(=O)c2ccc(C#N)cc2)cc1 [Compound 288, 6-tert-butyl-N-(4-cyanophenyl)sulfonyl-2-(p-tolyl)pyridine-3-carboxamide]	+++ (“+++” means <3 uM)

The next lines start with the values.

EC30	Structure (SMILES)
+++ (“+++” means <3 uM)	CNc1cccc(S(=O)(=O)NC(=O)c2ccc(C(C)(C)C)nc2Oc2c(C)cc(C)cc2C)c1 [Compound 289, 6-tert-butyl-N-[3-(methylamino)phenyl]sulfonyl-2-(2,4,6-trimethylphenoxy)pyridine-3-carboxamide]
+++ (“+++” means <3 uM)	COc1cccc2c1cc(C(=O)NS(=O)(=O)c1ccccc1)n2Cc1c(C)cccc1C [Compound 290, N-(benzenesulfonyl)-1-[(2,6-dimethylphenyl)methyl]-4-methoxy-indole-2-carboxamide]
++ (“++” means between 3 uM and 10 uM)	Cc1cc(C)c(Cn2c(C(=O)NS(=O)(=O)c3cccc(N)c3)cc3cc(C#N)ccc32)c(C)c1 [Compound 291, N-(3-aminophenyl)sulfonyl-5-cyano-1-[(2,4,6-trimethylphenyl)methyl]indole-2-carboxamide]
+++ (“+++” means <3 uM)	Cc1cc(C)c(Oc2nc(C(C)(C)C)ccc2C(=O)NS(=N)(=O)c2cccc(N)c2)c(C)c1 (stereo not drawn) [Compound 292, N-[(3-Aminophenyl)sulfonimidoyl]-6-tert-butyl-2-(2,4,6-trimethylphenoxy)pyridine-3-carboxamide]
+++ (“+++” means <3 uM)	Cc1cc(C)c(Cn2nc(-c3cccc(C)c3F)cc2C(=O)NS(=O)(=O)c2cccc(N)c2)c(C)c1 [Compound 293, N-(3-aminophenyl)sulfonyl-5-(2-fluoro-3-methyl-phenyl)-2-[(2,4,6-trimethylphenyl)methyl]pyrazole-3-carboxamide]
+++ (“+++” means <3 uM)	Cc1cc(C)c(Oc2nc(C(C)(C)C)ccc2C(=O)NS(=O)(=O)c2cccc(N)c2)c(C)c1 [Compound 294, N-(3-aminophenyl)sulfonyl-6-tert-butyl-2-(2,4,6-trimethylphenoxy)pyridine-3-carboxamide]
++ (“++” means between 3 uM and 10 uM)	CC(C)(C)c1cc(C(=O)NS(=O)(=O)c2cccc(N)c2)n(Cc2cccc3ccccc23)n1 [Compound 295, N-(3-aminophenyl)sulfonyl-5-tert-butyl-2-(1-naphthylmethyl)pyrazole-3-carboxamide]
+++ (“+++” means <3 uM)	Cc1ccccc1Oc1nc(C(C)(C)C)ccc1C(=O)NS(=O)(=O)c1cccc(N)c1 [Compound 296, N-(3-aminophenyl)sulfonyl-6-tert-butyl-2-(2-methylphenoxy)pyridine-3-carboxamide]
++ (“++” means between 3 uM and 10 uM)	Cc1ccc(-c2nc(C(C)(C)C)ccc2C(=O)NS(=O)(=O)c2ccc(N)cc2)cc1 [Compound 297, N-(4-aminophenyl)sulfonyl-6-tert-butyl-2-(p-tolyl)pyridine-3-carboxamide]
++ (“++” means between 3 uM and 10 uM)	Cc1cc(C)c(Cn2c(C(=O)NS(=O)(=O)c3ccncc3)cc3c(F)cccc32)c(C)c1 [Compound 298, 4-fluoro-N-(4-pyridylsulfonyl)-1-[(2,4,6-trimethylphenyl)methyl]indole-2-carboxamide]
+++ (“+++” means <3 uM)	Cc1cc(C)c(CN2Cc3c(C(C)C)cccc3C2C(=O)NS(=O)(=O)c2cccc(N)c2)c(C)c1 (stereo not drawn) [Compound 299, N-(3-aminophenyl)sulfonyl-4-isopropyl-2-[(2,4,6-trimethylphenyl)methyl]isoindoline-1-carboxamide]
+++ (“+++” means <3 uM)	Cc1ccc(-c2ccc(C(=O)NS(=O)(=O)c3cc[nH]n3)c(Oc3c(C)cc(C)cc3C)n2)cc1 [Compound 300, 6-(p-tolyl)-N-(1H-pyrazol-3-ylsulfonyl)-2-(2,4,6-trimethylphenoxy)pyridine-3-carboxamide]
++ (“++” means between 3 uM and 10 uM)	Cc1ccc(-c2nc(C(C)(C)C)ccc2C(=O)NS(=O)(=O)c2cccc(N)c2)cc1 [Compound 301, N-(3-aminophenyl)sulfonyl-6-tert-butyl-2-(p-tolyl)pyridine-3-carboxamide]
++ (“++” means between 3 uM and 10 uM)	Cc1cccc(C)c1Cn1nc(-c2cccc(CN3CCOCC3)c2)cc1C(=O)NS(=O)(=O)c1ccccc1 [Compound 302, N-(benzenesulfonyl)-2-[(2,6-dimethylphenyl)methyl]-5-[3-(morpholinomethyl)phenyl]pyrazole-3-carboxamide]
